These results are taken from PMC12733967, “Pleiotropic Function of Antenna-Specific Odorant-Binding Protein Links Xenobiotic Adaptation and Olfaction in Leptinotarsa decemlineata” (Insects, 2025).

Series [1] has as its target LdecOBP33. Kind of series: Saturation fluorescence binding assay of 1-NPN with recombinant LdecOBP33. Also noted: species or system Leptinotarsa decemlineata. The conditions noted are these: 2 µM LdecOBP33, 1-NPN 0-25 µM, 20 mM Tris pH 7.4, 25 °C; one-site saturation binding accounting for ligand depletion; read-out: dissociation constant (Kd). The procedure:
(§1) N-phenyl-1-naphthylamine (1-NPN) was used as a fluorescent reporter to assess the ligand-binding affinity of LdecOBP33 toward various plant volatiles and pesticides; this was chosen due to its reported success in prior studies. […] Each assay was performed at 25 ± 1 °C in a 96-well flat-bottom black plate with a final volume of 200 µL and 3 replicates. The relative fluorescence intensity was measured with a 337 nm/10 nm excitation filter and a 413 nm/10 nm emission filter, using a multi-mode Tecan Spark® plate reader. […] The equation Ki=IC50/(1+NPN/KdNPN) was used to calculate the Ki values of the competitor ligands.

The conditions of series [2]: ref PubChem database (accessed on 31 October 2025); cited from earlier work.
For series [3], the target named is LdecOBP33. Nature of the series: Competitive fluorescence displacement binding assay (1-NPN reporter). Also noted: species or system Leptinotarsa decemlineata. The note with it: for IC50 / displacement of the 1-NPN probe: 2 µM LdecOBP33, 2 µM 1-NPN; for IC50: competitor 0-450 µM, 20 mM Tris pH 7.4, 25 °C, mean ± SE (n = 3); for displacement of the 1-NPN probe: competitor up to 450 µM; for Ki: calculated from IC50 with Cheng and Prusoff equation, Ki=IC50/(1+NPN/KdNPN). The method, then: as §1

Series [4] concerns CPB. Kind of series: Baseline mortality exposure to imidacloprid in adults, resistant vs susceptible strains. The series is classed as in vivo, Leptinotarsa decemlineata. The source says:
Two different populations of CPBs were used for this study. The susceptible CPB population was purchased from French Agricultural Research (Lamberton, MN, USA). This population was initially collected in 2003 from Long Island, NY; following this, it was reared in laboratory conditions with no pesticide exposure. Neonicotinoid-resistant CPBs were collected from the University of Maine Aroostook Research Farm (Presque Isle, ME, USA). Baseline mortality exposure to imidacloprid in adults indicated a ~30-fold resistance ratio between the resistant and susceptible strains. Both CPB populations were reared in a Penn State facility greenhouse at 25 ± 1 °C under a 16:8 L/D photoperiod. Beetles were fed a constant supply of Red Norland potato plants and housed in insect and butterfly habitat cages (Restcloud, Guangzhou, China). Eggs were collected from plants and stored in Petri dishes maintained at 25 ± 1 °C and 60 ± 5% humidity under a 16:8 L/D photoperiod, located within a rearing room. Newly emerged first-instar larvae fed upon fresh potato plant leaflets up to the third instar and were then transferred back to the greenhouse.

Series [5] concerns CPB. Kind of series: Whole-antenna contact bioassay with imidacloprid. The series is classed as in vivo, Leptinotarsa decemlineata. The note with it: for mortality: after 36 h; for mortality / average mortality: 0.5 µL of 0.45 µg/µL per antenna. The method, then:
After feeding with RNAi, the control or LdecOBP33 knockdown male CPBs were placed individually into fresh Petri dishes and anesthetized on ice for 10 min. Afterwards, 0.5 µL of an imidacloprid solution (Sigma Aldrich, St. Louis, MO, USA)—at various concentrations—in acetone was topically applied to each antenna of each CPB using a Hamilton 25 µL model #702 syringe (Hamilton, Reno, NV, USA). Care was taken to ensure that the pesticide solution was applied exclusively to the antennae. […] After treatment, all CPBs were placed in a fresh Petri dish with fresh potato leaves; the dish was kept in a rearing room maintained at 25 ± 1 °C, 60 ± 5% humidity, and a 16:8 L/D photoperiod. CPB mortality was assessed at 0, 3, 6, and 12 h, and every 12 h thereafter, for a total of five days post-treatment. The determination of recovery for individual CPBs after pesticide treatment was adapted from prior studies using three criteria. […] Second, beetles were placed prone and given two minutes to flip upright; those unable to do so were classified as dead. Finally, beetles were placed upside down on the handle of a paintbrush to assess their mobility; individuals that could not walk their full body length or fell off were considered dead. Six biological replicates were conducted, each consisting of 8–10 beetles.

With `c1ccc(Nc2cccc3ccccc23)cc1` [1-NPN, N-phenyl-1-naphthylamine], the Kd on LdecOBP33 [1] turned out to be 4.53 ± 0.31 µM.
Turning to `CCC/C=C/C=O` [(E)-2-Hexenal], the LogP in series [2] was 1.50. For the same compound, at LdecOBP33 [3], the IC50 worked out at 401 ± 16.3 µM, the “displacement of the 1-NPN probe” value was “over 50%” and the Ki was 301 µM.
As to `CC/C=C/CCO` [(E)-3-Hexen-1-ol], the LogP in series [2] is reported as 1.30. At LdecOBP33 [3], the IC50 is above 450 µM, the “displacement of the 1-NPN probe” value is on record as “No noticeable displacement” and the Ki is above 338 µM.
For the compound `CC/C=C\CCOC(=O)CCC` [(Z)-3-Hexenyl-butyrate], on LdecOBP33 [3], the IC50 was 24 ± 2.05 µM, the “displacement of the 1-NPN probe” value was “over 50%” and the Ki was 18 µM.
Taken in the same sequence, the figures for `CNC(=O)Oc1cccc2ccccc12` [Carbaryl] were above 450 µM, “No noticeable displacement” and above 338 µM.
As to `COP(=S)(OC)Oc1nc(Cl)c(Cl)cc1Cl` [Chlorpyrifos-methyl], the LogP in series [2] is given as 4.30. Moreover, on LdecOBP33 [3], the IC50 was 63.7 ± 3.32 µM, the “displacement of the 1-NPN probe” value is recorded as “over 50%” and the Ki was 47.8 µM.
Consider `CCOP(=S)(OCC)Oc1nc(Cl)c(Cl)cc1Cl` [Chlorpyrifos], for which, in series [2], the LogP is on record as 4.96. At LdecOBP33 [3], the IC50 came out at 45.8 ± 3.53 µM, the “displacement of the 1-NPN probe” value is recorded as “over 50%” and the Ki was 34.4 µM.
With `CN/C(=N\[N+](=O)[O-])NCc1cnc(Cl)s1` [Clothianidin], in series [2], the LogP is listed as 0.70. For the same compound, on LdecOBP33 [3], the IC50 is 94.5 ± 4.24 µM, the “displacement of the 1-NPN probe” value is “over 50%” and the Ki is 71 µM.
Take `OC[C@H]1OC(O)[C@H](O)[C@@H](O)[C@@H]1O` (stereo partly drawn) [D-Glucose]: on LdecOBP33 [3], the IC50 was above 450 µM, the “displacement of the 1-NPN probe” value was “No noticeable displacement” and the Ki is above 338 µM.
For the compound `O=[N+]([O-])NC1=NCCN1Cc1ccc(Cl)nc1` [Imidacloprid], in series [2], the LogP is listed as 0.57. Also, at LdecOBP33 [3], the IC50 is 263 ± 15.2 µM, the “displacement of the 1-NPN probe” value is on record as “over 50%” and the Ki was 197 µM. Besides, in the series on CPB [4], the “resistance ratio between the resistant and susceptible strains” value is ~ 30 fold. In addition, the “increase of mortality, dsLdecOBP33-treated vs control” value in the series with CPB [5] (by 120 h) came out at 19%. The mortality with CPB [5] (control (dsGFP) resistant males) was 55%. In the series with CPB [5] (control (dsGFP) resistant males, by 120 h), the average mortality is 12%. The same compound came in with a mortality in the series on CPB [5] (dsLdecOBP33-KD resistant males) of 81%. In the series with CPB [5] (dsLdecOBP33-treated resistant males, by 120 h), this compound came in with an average mortality of 32%. In addition, the LD50 in the series on CPB [5] (preliminary tests, 0.5 µL application in acetone to each antenna) came to 0.45 µg/µL.
Regarding `C=C[C@](C)(O)CCC=C(C)C` [L-Linalool], on LdecOBP33 [3], the IC50 came to 48.3 ± 1.77 µM, the “displacement of the 1-NPN probe” value is on record as “over 50%” and the Ki is 36.2 µM.
Consider `COC(=O)c1ccccc1O` [Methyl salicylate], for which, in series [2], the LogP is given as 2.50. Moreover, on LdecOBP33 [3], the IC50 was determined as 396 ± 20 µM, the “displacement of the 1-NPN probe” value is “over 50%” and the Ki was 298 µM.
Turning to `CCCCCCCCC=O` [Nonanal], in series [2], the LogP is 3.30. In addition, at LdecOBP33 [3], the IC50 came out at 7.29 ± 0.53 µM and the “displacement of the 1-NPN probe” value is “over 50%”.
As to `CC(C)=CC1C(C(=O)OCN2C(=O)C3=C(CCCC3)C2=O)C1(C)C` (stereo not shown) [Tetramethrin], the lipophilicity (LogP) in series [2] is reported as 4.70. Also, on LdecOBP33 [3], the IC50 stood at 29.1 ± 1.78 µM, the “displacement of the 1-NPN probe” value was “over 50%” and the Ki was 21.8 µM.

As usually defined, the Kd is the constant that tells how readily two partners part at equilibrium. In general, LogP refers to a log measure of how a compound divides between an organic and an aqueous phase. As usually defined, the IC50 is the concentration needed to halve the response being measured. Usually Ki stands for the dissociation constant of the complex between target and ligand, obtained from inhibition or displacement. Usually mortality stands for the share of the test organisms that died.
